From US8952006B2, “Morpholinoalkyl fumarate compounds, pharmaceutical compositions, and methods of use” (XenoPort, Inc., priority 2012, dated 2015)
Counter-ions that a name gives are not always drawn.

Tests used:
[1] = system: stomach lesions in the rat; assay: Annamalai-Ma gastrointestinal irritation rat model; assay type: in vivo; conditions: rats, oral 180 mg-equivalents MMF/kg once per day for 4 days; score 0 (normal mucosa) to 5 (severe ulceration), Table 4
Excerpt: At least one MMF prodrug, e.g., dimethyl fumarate, is known to cause gastrointestinal irritation. The Annamalai-Ma gastrointestinal irritation rat model is predictive of gastrointestinal irritation of MMF prodrugs in humans. This animal model has several common features of other published GI irritation animal models including the Whiteley-Dalrymple model described in Models of Inflammation: Measuring Gastrointestinal Ulceration in the Rat, Pharmacology (1998) 10.2.1-10.2.4; as well as the animal models disclosed in Joseph J. Bertone, DVM, MS, DipACVIM. Prevalence of Gastric Ulcers in Elite, Heavy Use Western Performance Horses, AAEP Proceedings/Vol. 46/2000; and İsbíl Büyükcoskun N., Central Effects of Glucagon-like Peptide-1 on Cold Restraint Stress-induced Gastric Mucosal Lesions, Physiol. Res. 48: 451-455, 1999.
In order to assess gastrointestinal irritation using this model, rats are treated orally with either vehicle or the MMF prodrug of the present disclosure (n=10 per group) at 180 mg-equivalents MMF/kg of animal body weight, dosed once per day for 4 days, followed by necropsy and gastrointestinal evaluation at 24 hrs after the final dose. Evans Blue dye is injected IV (tail vein) to visually emphasize any lesions in the gastrointestinal tissue.
Accordingly, rats are dosed once per day for 4 consecutive days with 180 mg-equivalents MMF/kg body weight per day. The animals are fasted overnight prior to necropsy. On Day 5, to help visualize lesions, 1 mL of 1% Evan's blue in saline is injected into the tail vein 30 minutes prior to euthanasia. The animals are euthanized by inhalation of carbon dioxide. A partial necropsy, limited to the abdominal cavities, is then performed. The stomach and small intestine are removed. Residual material is washed away, using an irrigation syringe filled with saline. The stomach is cut along the larger curvature and washed gently with normal saline, and is examined for any lesions. The stomachs are scored in accordance with the scoring system outlined in Table 4.

[2] = system: imiquimod (IMQ) mouse model of psoriasis; assay: Imiquimod (IMQ) mouse model of psoriasis; assay type: in vivo; conditions: oral dose of 90 mg-eq MMF/kg BID for 10 days in male Balb/C mice
Experimental: Imidquimod model of skin inflammation (Fits et al The Journal of Immunology, 2009, 182: 5836-5845). 10-12 week old BALB/c, I117c+/+ or I117c−/−, or I117re+/+ or I117re−/− mice were administered 50 mg Aldara cream (5% Imidquimod in Graceway, 3M) in the shaved back and right ear daily for 5 days. Clinical scoring and ear thickness measurements were performed daily. Scoring was based upon the manifestation of psoriatic symptoms, such as erythema, scaling and thickness: 0, No disease. 1, Very mild erythema with very mild thickening and scaling involving a small area. 2, Mild erythema with mild thickening and scaling involving a small area. 3, Moderate erythema with moderate thickening and scaling (irregular and patchy) involving a small area (<25%). 4, Severe erythema with marked thickening and scaling (irregular and patchy) involving a moderate area (25-50%). 5, Severe erythema with marked thickening and scaling (irregular and patchy) involving a large area (>50%). Ear and back tissue were harvested on day 5 for histological evaluation.
Efficacy of compounds of the disclosure and DMF is compared in the imiquimod (IMQ) mouse model of psoriasis. Balb/c mice (10 males/group) received daily topical IMQ (5% cream) on shaved back and right ear for 5 days as described above. Animals received oral dose of a representative compound of the disclosure or DMF (45 or 90 mg-eq MMF/kg twice daily) or vehicle from Day −5 to Day 5. Erythema score is the primary outcome measure.
The Erythema score values of the compounds tested at an oral dose of 90 mg-eq MMF/kg BID for 10 days in male Balb/C mice are set forth in Table 3, below.

[3] = cited from earlier work

melting point	SMILES	Stomach Irritation Score [1]	Erythema Score (% Relative to IMQ) [2]	Aqueous solubility [3]
185.2 °C	COC(=O)/C=C/C(=O)OCCCN1CCOCC1 (as salt: HCl) [Compound 4, Methyl(3-morpholinopropyl)fumarate HCl salt]	–	–	–
145.5 °C	COC(=O)/C=C/C(=O)OCCCCN1CCOCC1 (as salt: HCl) [Compound 6, Methyl(4-morpholinobutyl)fumarate HCl salt]	–	–	–
150 °C	COC(=O)/C=C/C(=O)OCCCCCN1CCOCC1 (as salt: HCl) [Compound 8, Methyl(5-morpholinopentyl)fumarate HCl salt]	–	–	–
104.1 °C	COC(=O)/C=C/C(=O)OCCCCCCN1CCOCC1 (as salt: HCl) [Compound 10, Methyl(6-morpholinohexyl)fumarate HCl salt]	–	–	–
–	COC(=O)/C=C/C(=O)OCC(=O)N1CCOCC1 [CC-1, reference compound]	2.9	–	–
–	COC(=O)/C=C/C(=O)OCCN1CCOCC1 [Compound 2, Methyl(2-morpholinoethyl)fumarate HCl salt]	0	69 % Relative to IMQ	–
–	COC(=O)/C=C/C(=O)OCCCN1CCOCC1 [Compound 4, Methyl(3-morpholinopropyl)fumarate HCl salt]	0	73.3 % Relative to IMQ	–
–	COC(=O)/C=C/C(=O)OCCCCN1CCOCC1 [Compound 6, Methyl(4-morpholinobutyl)fumarate HCl salt]	0.6	57.1 % Relative to IMQ	–
–	COC(=O)/C=C/C(=O)OCCCCCN1CCOCC1 [Compound 8, Methyl(5-morpholinopentyl)fumarate HCl salt]	0	59.3 % Relative to IMQ	–
–	COC(=O)/C=C/C(=O)OCCCCCCN1CCOCC1 [Compound 10, Methyl(6-morpholinohexyl)fumarate HCl salt]	0	66.7 % Relative to IMQ	–
–	COC(=O)/C=C/C(=O)OC [DMF, dimethyl fumarate, reference compound]	4.6	74.1 % Relative to IMQ	poor
